# According to patent US20050163707A1, “Cancer treatment” (priority 2002, published 2005):
# Legend:
# [1] = tested on: HT1376 bladder tumour xenografts; test: Tumour volume tripling time of HT1376 xenografts in nude mice after 90Y-hHMFG1 radioimmunotherapy and/or chemotherapy; type: in vivo, mouse (human tumour xenograft); conditions: for T-C value: Cisplatin combined with 1.2 MBq radioimmunotherapy
# Procedure: (§1) The human bladder tumour cell line, HT1376, and the human colon tumour cell line HT29 expressing polymorphic epithelial mucin (PEM) were cultured in RPMI 1640 tissue culture medium containing 100 U·ml^−1 penicillin and 100 μg·ml^−1 streptomycin, supplemented with 10% foetal calf serum in a humidified atmosphere of 5% carbon dioxide in air. HT1376 is a human bladder carcinoma cell line obtained from the European Collection of Animal Cell Cultures (ECACC no. 87032402). HT29 is human colon carcinoma cell line obtained from European Collection of Animal Cell Cultures (ECACC no. 91072201).
# (§2) The fully humanised version of the anti-PEM antibody, HMFG1, was produced by Lonza, Slough, UK. This humanised HMFG1 (hHMFG1) was conjugated with the chelating agent […] by BioInvent, Sweden.
# (§3) CITC-DTPA-conjugated hHMFG1 was radiolabelled with ^90Y in acetate buffer (pH 5.5) at room temperature for 30 minutes. Disodium EDTA was added to the reaction mixture such that the final EDTA concentration was 5 mM and left to stand at room temperature for approximately 10 min. The radiolabelled protein was then purified by size exclusion chromatography and the protein-containing fractions pooled.
# (§4) Female MF1 athymic nude (nu/nu) mice were used throughout these studies. The mice were bred at the Biological Research Facility of St. George's Hospital Medical School and were housed in sterile filter cages and maintained on irradiated diet and sterile water. Tumours were established by subcutaneous injection of 5×10^6 cells in the right flank.
# (§5) Humanised HMFG1 anti-PEM antibody (previously conjugated with the chelating agent CITC-DTPA) was radiolabelled with yttrium-90 (^90Y) to a specific activity of approximately 1-2 MBq per 10 μg. Mice received approximately 10 μg of protein by intravenous injection.
# (§6) For combination therapy, the drug and radioimmunotherapy (RIT) were given by sequential injections into the two lateral tail veins. The drug was given either 24 h before or 24 h after the RIT. In the case of Cisplatin, this was also given at the same time as the RIT. Control mice were untreated.
# (§7) Approximately three weeks after tumour inoculation, when the tumours were around 0.2 cm^3 in volume (7-8 mm in diameter), mice were divided into treatment groups of 7-8 mice each. […] Mice were injected with various doses of ^90Y-labelled hHMFG1 radioimmunotherapy (10-20 μg, 1.2-2.0 MBq) either alone or in combination with the test drug given either 24 h before or 24 h after radioimmunotherapy, or with chemotherapy or chemotherapy vehicle alone. One group of mice was left untreated as a control on some occasions when experimental animals were treated. Tumour diameters (d1, d2 and d3) were measured twice weekly in three orthogonal directions using a vernier calliper and the tumour volume (v) calculated according to the formula for an ellipsoid: [formula]
# (§8) Relative tumour volume (the volume of each tumour divided by the tumour volume on the day of treatment) was calculated to minimise the effect of variation in treatment volume of the individual tumours. The end-point was defined as time for the relative tumour volume to reach 3.
# (§9) The Wilcoxon rank sum test was used to compare the groups of mice receiving the various treatment protocols. A p-value <0.05 was considered to be significant.
# [2] = tested on: mouse model of breast cancer; conditions: cited from earlier work
# [3] = tested on: HT29 colon tumour xenografts; test: Tumour volume tripling time of HT29 xenografts in nude mice after 90Y-hHMFG1 radioimmunotherapy and/or chemotherapy; type: in vivo, mouse (human tumour xenograft); conditions: for Median volume tripling time / T-C (treated minus control tripling time): 90Y-hHMFG1 1.4 MBq, combinations 24 h apart; for Most effective treatment schedule / Effect of drug combined with radioimmunotherapy (in words): Table 2; for Most effective treatment schedule: drug combined with 90Y-hHMFG1 radioimmunotherapy
# Procedure: as §1, §2, §3, §4, §5, §6, §7, §8, §9
# [4] = Table 2, HT1376 Cisplatin, Observer 1, control 21.9, 90Y-hHMFG1 1.2 MBq, Cisplatin 10 mg/kg, drug at -24 h, 0 h or +24 h relative to RIT
# [5] = Table 2, HT1376 Cisplatin, Observer 1, control 21.9, 90Y-hHMFG1 1.4 MBq, Cisplatin 2 mg/kg, combination at 0 h
# [6] = Table 2, HT1376 Cisplatin, Observer 1, control 21.9, 90Y-hHMFG1 1.4 MBq, Cisplatin 10 mg/kg, combination drug -24 h
# [7] = Table 1, group with Control (25-26) 19.0, each drug 10 mg/kg i.v. alone
# [8] = Table 1, group with Control (18-19) 17.9, Taxotere 10 mg/kg i.v., 90Y-hHMFG1 1.2 MBq i.v., combination of both
# [9] = Table 2, HT1376 Taxotere, Observer 1, control 21.9, 90Y-hHMFG1 1.2 MBq, Taxotere 10 mg/kg, combinations 24 h apart
# [10] = Table 2, HT29 cyclophosphamide, Observer 1, control 10.2, cyclo 200 mg/kg
# [11] = Table 2, HT29 cyclophosphamide, Observer 2, control 10.7, cyclo 200 mg/kg
# [12] = drug given after the 90Y-hHMFG1 radioimmunotherapy
# [13] = Table 2, HT29 gemcitabine, Observer 1, control 8.8, gemcitabine 240 mg/kg
# [14] = Table 2, HT29 gemcitabine, Observer 2, control 9.5, gemcitabine 240 mg/kg
# [15] = Table 2, HT29 vincristine, Observer 1, control 10.2, vincristine 2 mg/kg
structure (smiles),measurement,setting,value
N.N.[Cl][Pt][Cl] [Cisplatin],Median volume tripling time,[1]; [4],28.8 days
same,T-C (treated minus control tripling time),[1]; [4],6.9 days
same,Median volume tripling time,[1]; [5],28.9 days
same,T-C (treated minus control tripling time),[1]; [5],7.0 days
same,Median volume tripling time,[1]; [6],28.8 days
same,T-C (treated minus control tripling time),[1]; [6],6.9 days
same,"T-C, combined addition of the drugs administered individually","[1]; Table 2, 1.2 MBq 90Y-hHMFG1 alone plus Cisplatin 10 mg/kg alone",7.9
same,T-C value,"[1]; Table 2, first dosage regime (drug -24 h per Table 2)",44
same,T-C value,"[1]; Table 2, second dosage regime (0 h per Table 2)",36.5
same,T-C value,"[1]; Table 2, third dosage regime (drug +24 h per Table 2)",15.5
same,Most effective treatment schedule,"[1]; Table 2, drug combined with 90Y-hHMFG1 radioimmunotherapy",administer the drug 24 hours before the radioimuunotherapy
same,Effect of drug combined with radioimmunotherapy (in words),"[1]; Table 2, with 90Y-hHMFG1, no matter the order of administering",synergistic effect
COc1cccc2c1C(=O)c1c(O)c3c(c(O)c1C2=O)C[C@@](O)(C(=O)CO)C[C@@H]3O[C@H]1C[C@H](N)[C@H](O)[C@H](C)O1 [Dox],T-C (treated minus control tripling time),[1]; [7],33.9 days
same,Median volume tripling time,[1]; in vivo,52.9 days
"CC(=O)O[C@H]1C(=O)[C@@]2(C)[C@H]([C@H](OC(=O)c3ccccc3)[C@]3(O)C[C@H](OC(=O)[C@H](O)[C@@H](NC(=O)c4ccccc4)c4ccccc4)C(C)=C1C3(C)C)[C@]1(OC(C)=O)CO[C@@H]1C[C@@H]2O [Taxol ®, paclitaxel]",Optimum time for Taxol administration after 90Y-ChL6,[2],6 to 24 h
same,Median volume tripling time,[1]; [7],30.2 days
same,T-C (treated minus control tripling time),[1]; [7],11.2 days
"CC(=O)O[C@@]12CO[C@@H]1C[C@H](O)[C@@]1(C)C(=O)[C@H](O)C3=C(C)[C@@H](OC(=O)[C@H](O)[C@@H](NC(=O)OC(C)(C)C)c4ccccc4)C[C@@](O)([C@@H](OC(=O)c4ccccc4)[C@H]21)C3(C)C [Taxotere ®, Docetaxel]",Median volume tripling time,[1]; [8],43.8 days
same,T-C (treated minus control tripling time),[1]; [8],25.9 days
same,Median volume tripling time,[1]; [7],41.2 days
same,T-C (treated minus control tripling time),[1]; [7],22.2 days
same,Median volume tripling time,[1]; [9],43.5 days
same,T-C (treated minus control tripling time),[1]; [9],21.6 days
"O=P1(N(CCCl)CCCl)NCCCO1 (stereo not shown) [cyclo, Cyclophosphamide]",Median volume tripling time,[3]; [10],15.5 days
same,T-C (treated minus control tripling time),[3]; [10],5.3 days
same,Median volume tripling time,[3]; [11],14.1 days
same,T-C (treated minus control tripling time),[3]; [11],3.4 days
same,Most effective treatment schedule,[3],most effective when given after the radioimmunotherapy
same,Effect of drug combined with radioimmunotherapy (in words),[3]; [12],synergistic effect over the mere additive effect
"Nc1ccn([C@@H]2O[C@H](CO)[C@@H](O)C2(F)F)c(=O)n1 [gemcitabine, Gemcitabine]",Median volume tripling time,[3]; [13],15.4 days
same,T-C (treated minus control tripling time),[3]; [13],6.6 days
same,Median volume tripling time,[3]; [14],12.8 days
same,T-C (treated minus control tripling time),[3]; [14],3.3 days
same,Effect of drug combined with radioimmunotherapy (in words),[3]; drug and 90Y-hHMFG1 radioimmunotherapy given in combination,overall increase in T-C values
"CC[C@]1(O)C[C@H]2CN(CCc3c([nH]c4ccccc34)[C@@](C(=O)OC)(c3cc4c(cc3OC)N(C=O)[C@H]3[C@@](O)(C(=O)OC)[C@H](OC(C)=O)[C@]5(CC)C=CCN6CC[C@]43[C@@H]65)C2)C1 [vincristine, Vincristine]",Median volume tripling time,[3]; [15],13.4 days
same,T-C (treated minus control tripling time),[3]; [15],3.2 days
same,T-C (treated minus control tripling time),"[3]; Table 2, HT29 vincristine, Observer 2, control 10.7, vincristine 2 mg/kg",4.0 days
same,Effect of drug combined with radioimmunotherapy (in words),[3]; drug administered before the 90Y-hHMFG1 radioimmunotherapy,also effective when administered before the radioimmunotherapy although to a slightly lesser extent
same,Most effective treatment schedule,[3],most effective when given after the radioimmunotherapy
same,Effect of drug combined with radioimmunotherapy (in words),[3]; [12],synergistic effect over the mere additive effect
